Article PMC4259414, “HS-133, a novel fluorescent phosphatidylinositol 3-kinase inhibitor as a potential imaging and anticancer agent for targeted therapy” (Oncotarget, 2014)
Where two headings read alike, the source gives them in different places.

Legend:
T47D cells = assay: cell viability MTT assay, T47D; format: cell-based; settings: Homo sapiens, 48 h, read-out: IC50, cell growth inhibition
Protocol: To determine whether HS-133 can function as a novel anticancer compound, we tested the ability of this compound to inhibit the growth of breast cancer cell lines (SkBr3, T47D, and MCF-7) using an MTT assay. The cells were exposed to various concentrations (0.5–50 μM) of HS-133 for 48 h. As shown in Fig. 3A-C, HS-133 inhibited the growth of all three breast cancer cell lines in a dose-dependent manner.
Cell viability was performed by an MTT assay. Briefly, the SkBr3, T47D, and MCF-7 cells were plated at a density of 1-5 × 10^3 cells/well in a 96-well plate for 48 h. The medium was removed, and the cells were treated with either DMSO as control or various concentrations of HS-133. The final concentration of DMSO in the medium was ≤ 0.1% (v/v). After the cells were incubated for 48 h, 20 μl of MTT solutions (2 mg/ml) was added to each well for another 4 h at 37°C. The formazan crystals that formed were dissolved in DMSO (200 μl/well) via constant shaking for 5 min. The plate was then read on a microplate reader at 540 nm. Three replicate wells were used for each analysis. The median inhibitory concentration (IC50, defined as the drug concentration at which cell growth was inhibited by 50%) was assessed from the dose-response curves.

[1] = tissue distribution, tissue-to-plasma ratio; format: in vivo, BALB/c nude mice bearing SkBr3 xenograft; settings: BALB/c nude, mouse, PO 10 mg/kg, 30 min post-dose
Text: Various tissue concentrations, such as the heart, lung, liver, kidney, spleen, brain, and tumor in BALB/c nude mice bearing SkBr3 xenograft are shown in Fig. 9B. The ratios of each tissue-to-plasma (KP value) were 3.26, 4.18, 0.11, 1.99, 3.07, 4.99, and 2.06 for the heart, lung, liver, kidney, spleen, brain, and tumor, respectively. […] Thus, this high concentration level of HS-133 in tumor tissues may be contributed to in vivo efficacy in the SkBr3 xenograft model.
The heart, lung, liver, kidney, brain, spleen, and tumor were collected at 30 min post-dose from 3 different animals at each time point, rinsed with ice-cold saline, weighed and stored at −80°C until analysis. For HS-133 quantification, mouse tissues were homogenized with three times the volume of PBS. The homogenates were extracted by protein precipitation with acetonitrile. LC-MS/MS analysis was conducted as described for the plasma. The homogenate concentrations were converted to tissue concentrations for the calculations of each tissue-to-plasma ratio.

SkBr3 cells = assay: apoptosis: Western blotting and TUNEL assay; format: cell-based, human
Text: Since PI3K and its downstream effectors appear to mediate anti-apoptotic signals, we examined the effect of HS-133 on apoptosis. […] We also observed that the levels of Bax, pro-apoptotic protein, were increased by HS-133 treatment in a dose-dependent manner. Furthermore, induction of apoptosis by HS-133 was confirmed by visualizing the fragmented DNA with TUNEL staining (Fig. 5B).
The cells were washed three times with ice-cold PBS before lysis, and were lysed with a buffer containing 1% Triton X-100, 1% Nonidet P-40 (NP-40), as well as protease and phosphatase inhibitor cocktails (GenDEPOT, Barker, TX). Equal amounts of protein were separated by 10% sodium dodecyl sulfate-polyacrylamide gel electrophoresis (SDS-PAGE) and transferred onto the polyvinylidene fluoride (PVDF) membranes (Millipore, Bedford, MA). Immunostaining was performed by incubating the blots with primary antibodies, followed by horseradish peroxidase (HRP)-conjugated secondary antibody and detected with an enhanced chemiluminescence (ECL) plus system (Amersham Biosciences, Piscataway, NJ). […]
The SkBr3 cells were plated on 18-mm cover glasses in DMEM medium and incubated for 24 h so that approximately 70% confluence was reached. […] The stained cells were examined for a fluorescence of nuclear fragmentation. […]

IC50 (T47D cells): 9.4 µM
Kp at 0.5 h ([1]; brain, read-out: tissue-to-plasma ratio (KP value), brain): 4.99
Kp at 0.5 h ([1]; heart, read-out: tissue-to-plasma ratio (KP value), heart): 3.26
Kp at 0.5 h ([1]; kidney, read-out: tissue-to-plasma ratio (KP value), kidney): 1.99
Kp at 0.5 h ([1]; liver, read-out: tissue-to-plasma ratio (KP value), liver): 0.11
Kp at 0.5 h ([1]; lung, read-out: tissue-to-plasma ratio (KP value), lung): 4.18
Kp at 0.5 h ([1]; spleen, read-out: tissue-to-plasma ratio (KP value), spleen): 3.07
Kp at 0.5 h ([1]; tumor, read-out: tissue-to-plasma ratio (KP value), tumor): 2.06
Compound: CC(=O)Nc1ccc(-c2nc3c(c(=O)n(C)c(=O)n3C)n2-c2cccc(F)c2)cc1 [HS-133, N-(4-(7-(3-Fluorophenyl)-1,3-dimethyl-2,6-dioxo-2,3,6,7-tetrahydro-1H-purin-8-yl)phenyl) acetamide]
induction of apoptosis (cleavage of PARP and caspases, Bax, TUNEL) (SkBr3 cells): could induce apoptosis
